Experimental data from ChEMBL document CHEMBL1201862, “PubChem BioAssay data set” (2004).
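Dose response: 5 concentrations. Exposure: 48 h. Format: 96-well plates. Endpoint: linear interpolation; highest concentration if not reached. The concentration for 50% growth inhibition is given as GI50.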 Active and inactive are the calls of the source. No stated cut-off is given here; in the data, active = GI50 up to about 1.1 µM and inactive = higher.

Legend:
Test in all cases: inhibition of tumour cell growth, NCI panel, 48 h
[1] = tested on: 786-0
[2] = tested on: A498
[3] = tested on: A549
[4] = tested on: ACHN
[5] = tested on: CAKI-1
[6] = tested on: CCRF-CEM
[7] = tested on: DLD-1
[8] = tested on: DMS-273
[9] = tested on: HCC 2998
[10] = tested on: HCT-116
[11] = tested on: HCT-15
[12] = tested on: HL-60
[13] = tested on: HOP-62
[14] = tested on: HOP-92
[15] = tested on: HT-29
[16] = tested on: K562
[17] = tested on: KM12
[18] = tested on: LOX IMVI
[19] = tested on: LXFL 529
[20] = tested on: M14
[21] = tested on: M19-MEL
[22] = tested on: MOLT-4
[23] = tested on: Malme-3M
[24] = tested on: NCI-H226
[25] = tested on: NCI-H23
[26] = tested on: NCI-H460
[27] = tested on: NCI-H522
[28] = tested on: OVCAR-4
[29] = tested on: OVCAR-5
[30] = tested on: OVCAR-8
[31] = tested on: RPMI-8226
[32] = tested on: RXF 393
[33] = tested on: SF-268
[34] = tested on: SF-295
[35] = tested on: SF-539
[36] = tested on: SK-MEL-28
[37] = tested on: SK-MEL-2
[38] = tested on: SK-MEL-5
[39] = tested on: SN12C
[40] = tested on: SNB-19
[41] = tested on: SNB-75
[42] = tested on: SNB-78
[43] = tested on: SR
[44] = tested on: SW-620
[45] = tested on: TK-10
[46] = tested on: U-251
[47] = tested on: UACC-257
[48] = tested on: UO-31
[49] = tested on: XF498
[50] = tested on: COLO 205
[51] = tested on: DMS-114
[52] = tested on: EKVX
[53] = tested on: IGROV-1
[54] = tested on: KM-20L2
[55] = tested on: OVCAR-3
[56] = tested on: SK-OV-3
[57] = tested on: UACC-62

O=[N+]([O-])C1C2C=CC(C2)[C@H]1c1ccc(Cl)cc1Cl (stereo partly drawn)
GI50 [1]: 54.3 µM (inactive)
GI50 [2]: 55 µM (inactive)
GI50 [3]: 35.2 µM (inactive)
GI50 [4]: 33 µM (inactive)
GI50 [5]: > 10 µM (inactive)
GI50 [6]: 39.4 µM (inactive)
GI50 [7]: 20.3 µM (inactive)
GI50 [8]: 46.5 µM (inactive)
GI50 [9]: 75.5 µM (inactive)
GI50 [10]: 37 µM (inactive)
GI50 [11]: 43.3 µM
GI50 [12]: 19.3 µM (inactive)
GI50 [13]: > 10 µM (inactive)
GI50 [14]: 23.3 µM (inactive)
GI50 [15]: 21.4 µM (inactive)
GI50 [16]: 35.4 µM (inactive)
GI50 [17]: 61.2 µM (inactive)
GI50 [18]: 29.7 µM (inactive)
GI50 [19]: 39.4 µM (inactive)
GI50 [20]: > 10 µM (inactive)
GI50 [21]: 34.8 µM (inactive)
GI50 [22]: 26.7 µM (inactive)
GI50 [23]: 42.3 µM (inactive)
GI50 [24]: 49 µM (inactive)
GI50 [25]: 36.7 µM (inactive)
GI50 [26]: 36.2 µM (inactive)
GI50 [27]: > 10 µM (inactive)
GI50 [28]: > 10 µM (inactive)
GI50 [29]: 75.2 µM (inactive)
GI50 [30]: 57.1 µM (inactive)
GI50 [31]: 24.9 µM (inactive)
GI50 [32]: 20.9 µM (inactive)
GI50 [33]: 45.1 µM (inactive)
GI50 [34]: 24.8 µM (inactive)
GI50 [35]: 35.8 µM (inactive)
GI50 [36]: 19.7 µM (inactive)
GI50 [37]: 44.9 µM (inactive)
GI50 [38]: 4.36 µM (inactive)
GI50 [39]: 67 µM (inactive)
GI50 [40]: 48.5 µM (inactive)
GI50 [41]: 11.4 µM (inactive)
GI50 [42]: 48.4 µM (inactive)
GI50 [43]: 35.7 µM (inactive)
GI50 [44]: 74.5 µM (inactive)
GI50 [45]: 69.7 µM (inactive)
GI50 [46]: 35.3 µM (inactive)
GI50 [47]: 31.8 µM (inactive)
GI50 [48]: 26.4 µM (inactive)
GI50 [49]: 43.7 µM (inactive)

CCCCCC(/C=C/c1ncccc1OCCCCCC(=O)O)=N\NC1=NCCN1
GI50 [3]: > 100 µM (inactive)
GI50 [4]: > 100 µM (inactive)
GI50 [5]: > 100 µM (inactive)
GI50 [6]: 53.6 µM (inactive)
GI50 [50]: 53.8 µM (inactive)
GI50 [51]: 45.2 µM (inactive)
GI50 [8]: 42.9 µM (inactive)
GI50 [52]: > 100 µM (inactive)
GI50 [9]: > 100 µM (inactive)
GI50 [10]: 43.4 µM (inactive)
GI50 [11]: > 100 µM
GI50 [12]: 57.8 µM (inactive)
GI50 [13]: > 100 µM (inactive)
GI50 [14]: 91 µM (inactive)
GI50 [15]: > 100 µM (inactive)
GI50 [53]: > 100 µM (inactive)
GI50 [16]: 60.3 µM (inactive)
GI50 [54]: > 100 µM (inactive)
GI50 [17]: 54.3 µM (inactive)
GI50 [18]: 74 µM (inactive)
GI50 [19]: 47.2 µM (inactive)
GI50 [20]: > 100 µM (inactive)
GI50 [21]: > 100 µM (inactive)
GI50 [22]: 62.7 µM (inactive)
GI50 [23]: > 100 µM (inactive)
GI50 [24]: > 100 µM (inactive)
GI50 [26]: 51.9 µM (inactive)
GI50 [27]: 50.8 µM (inactive)
GI50 [55]: 89.9 µM (inactive)
GI50 [28]: 78.7 µM (inactive)
GI50 [29]: > 100 µM (inactive)
GI50 [30]: > 100 µM (inactive)
GI50 [31]: 29.4 µM (inactive)
GI50 [32]: > 100 µM (inactive)
GI50 [33]: > 100 µM (inactive)
GI50 [34]: > 100 µM (inactive)
GI50 [35]: 76 µM (inactive)
GI50 [36]: > 100 µM (inactive)
GI50 [37]: 48.9 µM (inactive)
GI50 [56]: > 100 µM (inactive)
GI50 [39]: 94.4 µM (inactive)
GI50 [40]: > 100 µM (inactive)
GI50 [41]: 40.2 µM (inactive)
GI50 [43]: 39.4 µM (inactive)
GI50 [44]: 85.1 µM (inactive)
GI50 [45]: > 100 µM (inactive)
GI50 [57]: 44.1 µM (inactive)
GI50 [48]: > 100 µM (inactive)
GI50 [49]: 27.3 µM (inactive)
